# How the values were obtained:
# [1] = tested on: writhing; assay: writhing test on mice (analgesic effect); assay type: in vivo; conditions: Mus musculus, po, per os, dosis that reduces the number of writhings by 50% vs control
# Procedure: (§1) The ED50 levels were determined graphically on probability paper. In the writhing test, the ED50 is defined to be the dosis of active ingredient that reduces the number of writhings by 50% as compared with a control group. In the adjuvant arthritis test, the effect was judged by observing the inhibition in the secondary lesions, which the animals inflicted to their ears, paws and tails, on the 17th day after the administration of the active substance compositions had started, in comparison with a control group. ED50 is considered the dosis that reduces these lesions by 50% as compared to those of the control group.
# [2] = in vivo; parameters: species or system male rats of a Sprague-Dawley strain; conditions: rat, po
# Procedure: To examine the ulcerogenic activity, the substances to be tested were orally administered to male rats of a Sprague-Dawley strain, that had been kept unfed for 18 hours, and 24 hours after administration, the gastrointestinal tract of the animals was inspected for ulcers.
# [3] = in vivo; conditions: mouse, po, per os, N.M.R.I. mice, observation time 7 days
# [4] = in vivo; conditions: rat, po, per os, observation time 7 days
# Excerpt: ^1) Limits of confidence for p = 0.05 in brackets
# ^2) Sprague-Dawley rats used as test animals
# [5] = tested on: adjuvant arthritis; assay: adjuvant arthritis in rats (anti-inflammatory effect); assay type: in vivo; conditions: Rattus norvegicus, po, 408 h, per os, 50% reduction of secondary lesions on the 17th day vs control
# Procedure: as §1
Structure (SMILES),ED50 [1] [mg/kg],NOAEL at 24 h [2] [mg/kg],LD50 at 168 h [3] [mg/kg],LD50 at 168 h ([4]; female Wistar-Lewis rats) [mg/kg],ED50 [5] [mg/kg],LD50 at 168 h ([4]; Sprague-Dawley rats used as test animals (footnote 2)) [mg/kg]
CC(O)=C(C#N)C(=O)Nc1cccc(Cl)c1 [No. 2],~25,200,585,445,22,–
"CCCCC1C(=O)N(c2ccccc2)N(c2ccccc2)C1=O [Phenylbutazone, phenylbutazone, reference compound]",60 to 100,63,–,–,37,–
CC(O)=C(C#N)C(=O)Nc1cccc(C(F)(F)F)c1 [compound 11],25,100,660,–,28,670
